We go through 3 compounds from US20120172375A1, “COMPOUNDS AND METHODS OF PROMOTING OLIGODENDROCYTE PRECURSOR DIFFERENTIATION” (priority 2008, published 2012).

Experiment [1] has as its system oligodendrocyte progenitor cells. In words: Immunocytochemistry for PLP/DM20 and MBP, count of differentiated cells. The class given is cell-based, mouse. Particulars: for cell morphology after long-term exposure: compound B at the lowest concentrations (0.1 μM). As for the experimental part: (§1) Immunodetection of oligodendrocyte and myelin markers was performed. In brief, Oligodendrocyte cells plated on PDL-coated dishes were initially fixed in 2% paraformaldehyde (PFA) for 10 min at room temperature (RT) and then 4% PFA for 15 min, washed three times with PBS and permeabilized with 0.1% Triton X100 for 10 min at RT. After blocking with 3% BSA in PBS for 60 min a RT, the cells were incubated with primary antibodies at the indicated concentrations overnight (ON) at 4° C. The cells were washed three times with cold PBS incubated with secondary antibodies for 45 min at RT, and washed again before mounting. Immunostaining of tissue sections prepared with a sliding microtome (30 μm) was performed. In brief, tris buffered saline (TBS) containing 100 nM Sodium fluoride (TBSS) was used the all dilutions and washes. For antigen retrieval, sections were washed 3 times in TBSS, incubated in 5% methanol and 3% H2O2 for 10 min, washed 2 times, and then incubated in 10% Triton X-100 for 20 min. Blocking of unspecific bonds was performed by incubating the tissue sections with 10% NGS for 1 hr. Primary antibodies were diluted in 3% BSA containing 0.02% Triton X-100 and sections were incubated overnight in this solution. The next day the sections were washed 3 times in TBSS, followed by 1 hr incubation in secondary antibodies (1:1000) at 4° C. After several washes, the sections were mounted using Vectashield (Vector Laboratories, Burlingame, Calif.). Visualization of immunostained cells and tissue was performed on a Leica DMR (Wetzlar, Germany) or a Leica SP5 confocal microscope.
(§2) The primary screening to select positive compounds was performed at a standard concentration of 10 μM with cell morphology analysis 48 hrs after treatment. Dose response curves at 48 hrs treatment time were performed to determine the minimum concentration compounds A, A-7 and B needed to induce cell maturation. We assessed oligodendrocyte differentiation by cell morphology changes, green fluorescence in cells generated from or Plp-EGFP transgenic mouse, immunostaining for myelin proteins and western blot for expression of the oligodendrocyte markers PLP/DM20 and 2′,3′, cyclic nucleotide 3′ phosphohydrolase (CNPase). EC50 values were also calculated based on results of western blot for myelin proteins and subsequent band densitometry analysis. Additionally, we followed cell differentiation induced over long time exposure to compounds A and B (7 days, 0.1-10 μM).
Compound A-7-induced oligodendrocyte progenitor maturation was also analyzed in comparison to control cells in immunostaining experiments to detect the myelin proteins MBP and PLP. Positive cells for these markers showing processes formation and membranous structures were counted versus total cells and counterstained with the nuclear dye Dapi after 48 hrs (Tables 3 and 4) and 7 days treatment with 0.1, 1 or 10 μM compound A-7 (FIG. 2, B).

Experiment [2] deals with cuprizone-fed C57B1/6J mice. Description: Myelin protein (PLP/DM20, MOG) immunostaining densitometry in cuprizone-demyelinated mice. The conditions noted are these: i.p., two doses. In kind it is in vivo. How it is done:
For in vivo experiments in mice, the cuprizone-mediated demyelination model was implemented as described elsewhere, (Sun et al., 2006; Wu et al., 2008). In brief, 9 week-old C57B1/J6 mice were fed with cuprizone supplemented chow (0.3%, Harlan) during 4-6 weeks. At the end of this period, while the mice were still on cuprizone diet, the animals were injected I.P. with the indicated concentrations of small molecules dissolved in DMSO. 72 hrs later, a second dose was administered and at that point the food was changed to regular chow. 48 hr after the second dose, the animals were sacrificed perfused with 4% paraformaldehyde (PFH) and the brain tissue processed or immunohistochemistry.
as §1, with “After several washes, the sections were mounted using Vectashield (Vector Laboratories, Burlingame, Calif.). Visualization of immunostained cells and tissue was performed on a Leica DMR (Wetzlar, Germany) or a Leica SP5 confocal microscope.” left out

The subject of experiment [3] is oligodendrocyte progenitor cells. Description: Western blot for myelin proteins PLP/DM20 and CNPase in treated oligodendrocyte progenitor cells. The class given is cell-based, mouse. Particulars: for induction of PLP/DM20 and CNPase expression at low concentrations: 0.01 and 0.1, 48 hrs (FIG. 2); for EC50: Mus musculus, Oligodendrocyte progenitor cell. How it is done:
Oligodendrocyte progenitors were generated from embryonic neural progenitors growing in cell aggregates known as neurospheres (Nphs). Nph were prepared from embryos at 14.5 days of gestation obtained from timed pregnant females of either wild type mice or the proteolipid protein-enhanced-green fluorescence protein (Plp-EGFP) transgenic mouse. In brief, after separation of meninges and cerebellum, cerebrum tissue was mechanically triturated with a 1 ml Gilson pipette until total tissue disaggregation was achieved, filtered through a 70 μm cell strainer (Fisher Scientific, Pittsburg, Pa.) and plated in 25 cm^2 plastic culture flasks (2 brains/flask). Nph proliferation media (NPM) was DMEM/F12, B27 neuronal supplement (Gibco, Baltimore, Md.) and 10 ng/ml EGF (Sigma, St. Louis, Mo.). After 48-72 hr, floating Nphs were passaged at a 1:3 ratio in the same medium every 3-4 days. To generate oligodendrocyte progenitors, single cells suspensions were obtained by chemical disgregation with the mouse NeuroCult dissociation kit (StemCell Technologies, Alberta, Canada). The single cell suspension was filtered through a 70 μm cell strainer and plated on 96-well poly-D-Lysine (PDL)-coated plates at a cell density of 1.5×10^4 cells/cm^2. Cells were maintained in NPM supplemented with 10 ng/ml PDGF/bFGF instead of EGF. Bipolar, oligodendrocyte progenitor cells were observed 24 hours after plating. At the Moment of treatment to induce oligodendrocyte progenitor differentiation, the media was changed to OPC differentiation media containing NPM with a 1:10 dilution of PDGF/FGF.
For myelin protein analyses, cells were grown on 100 mm culture plates and after exposure to small molecules or controls were washed twice with ice-cold PBS. RIPA lysis buffer was added to the plates and the cells were scraped, collected and disrupted with a homogenizer on ice. Cell homogenates were then centrifuged at 6,000×g, 10 min, 4° C. and supernatants separated in a fresh tube. After adding Laemli loading buffer, proteins were denaturized at 70° C. for 10 mm and loaded in gradient gels (4-20, Criterion, BioRad, Calif.). Electroforetically separated proteins were electro-transferred to nitrocellulose membranes in a semi-dry apparatus and unspecific bonds were blocked with IRdye blocking solution for at least 1 hr at RT. After washing twice with TBS-T, primary antibodies were added and incubated over night at 4° C. Membranes were incubated with secondary, IRdye-infrared conjugated antibodies for 1 hr at RT and visualized on the Odyssey scanner.
as §2

The mark [4] stands for this setting: 48 hrs, read-out: EC50 for CNPase expression (western blot).
[5] abbreviates: 48 hrs, read-out: EC50 for PLP/DM20 expression (western blot).

“And” between values parts separate entries of the source, which are not always exact repeats. Equal values may be shown once. “Also recorded” adds a separate entry of the source. Read-outs that look alike come from different tables or passages of the source.

For the compound `CCS(=O)(=O)N1CCN(C(=O)COc2ccc(-c3ccccc3)cc2)CC1` [Compound A, 1-[(4-biphenylyloxy)acetyl]-4-(ethylsulfonyl)piperazine], in experiment [1] (10 μM, 48 hr (FIG. 1)), the “immunostaining for PLP and MBP: expression of myelin proteins” value is “increased expression”. The “differentiated cells, percentage of total cells” value in experiment [1] (7 days after treatment, 0.1-10 μM, control 9.5%) is on record as “about 25%”. Further, in experiment [1] (7 days after treatment), the “cell morphology after long-term exposure” value was “clear morphology changes; also recorded: formation of long-thick processes and major membranous structures”. Moreover, the “Differentiated Cells (IC, % of Control)” value in experiment [1] (Table 3, 10 μM, 48 hrs) is listed as 186.1 ± 44.8 n = 4; p <0.05 % of Control; in experiment [1] (Table 4, 1 μM) it was 248.9 ± 47.5 % of Control; in experiment [1] (Table 4, 10 μM), 289.3 ± 66.6 % of Control. In addition, the “effect on myelin protein expression / remyelination enhancement” value in experiment [2] was “recovery of myelin protein expression”. Moreover, the “induction of PLP/DM20 and CNPase expression at low concentrations” value (from here on “induction … at low concentrations”) in experiment [3] was “observed”. Further, the “low concentration at which increased expression of the major myelin proteins is already detectable” value in experiment [3] (48 hrs) was 0.1 µM. The EC50 in experiment [3] (setting [4]) worked out at 10 nM; in experiment [3] (setting [5]), 23 nM. In addition, the “PLP/DM20 Expression (WB, % of Control)” value is 195 ± 25.8 n = 6; p <0.01 % of Control in experiment [3] (Table 3, 10 μM, 48 hrs); 201.2 ± 49.4 % of Control in experiment [3] (Table 4, 1 μM); 195.1 % of Control and 195.1 ± 25.8 % of Control in experiment [3] (Table 4, 10 μM).
Consider `CC(C)N1CCN(C(=O)COc2ccc(-c3ccccc3)cc2)CC1` [Compound A-7, 1-(Biphenyl-4-yloxy)acetyl-4-isopropylpiperazine], for which the “percentage of differentiated cells compared to A treated cells” value in experiment [1] (10 μM) came to 159.1%. The “concentration at which induction of oligodendrocyte differentiation reached maximum levels” value in experiment [1] (48 hrs and 7 days treatment) is 0.1 µM. In experiment [1] (7 days after treatment), the “cell morphology after long-term exposure” value is “formation of long-thick processes and major membranous structures”. The “Differentiated Cells (IC, % of Control)” value in experiment [1] (Table 3, 10 μM, 48 hrs, 10 µM) is 296.1 % of Control; in experiment [1] (Table 3, 10 μM, 48 hrs, listed as drawing 48, 10 µM), 296.1 ± 19 n = 4; p <0.05 % of Control; in experiment [1] (Table 4, 1 μM, 1 µM) it was 343 % of Control and 343.2 ± 52.3 % of Control; in experiment [1] (Table 4, 10 μM) it was 296 ± 38.06 % of Control. Also, the “effect on myelin protein expression / remyelination enhancement” value in experiment [2] is reported as “recovery of myelin protein expression”. In addition, the “myelin protein PLP/DM20 expression compared to other compounds and controls” value in experiment [3] is recorded as “dramatic up-regulation”. Also, in experiment [3], the “reduction of the amount necessary to induce the same effect as 10 μM compound A” value is listed as 1-2 orders of magnitude. Besides, the “induction of PLP/DM20 expression relative to levels of the A treated cells” value in experiment [3] (10 μM) is 147%. Further, the “effect at 50 μM” value in experiment [3] (50 μM) is “slightly decreases”. Besides, the “induction … at low concentrations” value in experiment [3] is given as “observed”. The EC50 was 70 nM in experiment [3] (setting [4]) and 30 nM in experiment [3] (setting [5]). Besides, the “PLP/DM20 Expression (WB, % of Control)” value is 286.8 % of Control in experiment [3] (Table 3, 10 μM, 48 hrs); 286.8 ± 16.5 n = 6; p <0.01 % of Control in experiment [3] (Table 3, 10 μM, 48 hrs, listed as drawing 48); 263.3 % of Control and 263.3 ± 25.2 % of Control in experiment [3] (Table 4, 1 μM); 286.8 ± 16.5 % of Control in experiment [3] (Table 4, 10 μM).
`O=[N+]([O-])c1ccc(F)c(NS(=O)(=O)c2ccc(F)cc2)c1` [Compound B, 4-fluoro-N-(2-fluoro-5-nitrophenyl)benzenesulfonamide]: the “cell morphology after long-term exposure” value in experiment [1] (7 days after treatment) is “clear morphology changes; also recorded: formation of long-thick processes and major membranous structures”. Also, the “percentage of mature cells” value in experiment [1] (7 days, 10 μM) is on record as “dropped to control levels”. In addition, the “effect on myelin protein expression / remyelination enhancement” value in experiment [2] was “did not detect any relevant effect”. Moreover, in experiment [3], the “induction … at low concentrations” value is “observed”. Also, the “oligodendrocyte cell differentiation at high doses compared with control cells” value in experiment [3] (10-50 μM) is on record as “did not induce higher oligodendrocyte cell differentiation”. In experiment [3] (48 hrs), the “concentrations with significant/effective induction of myelin protein expression (western blot densitometry)” value was 0.01 to 1 µM. For the same compound, the EC50 was determined as 5 nM in experiment [3] (setting [4]) and 7 nM in experiment [3] (setting [5]).
